Measured values as given in patent publication US20230131899A1, “INHIBITORS OF MICROBIALLY INDUCED AMYLOID” (Axial Therapeutics, Inc., priority 2020, published 2023).
Like-named read-outs stand apart in the source and are kept apart here.

Test system: CsgA gene expression (csgBAC promoter-GFP reporter) in E. coli UTI89
Assay: In vitro live cell fluorescent reporter assay of CsgA transcription (Reporter Assay)
Type: cell-based
Conditions: Escherichia coli
In short: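 Compounds at 0.14–100 μM (1% DMSO final) incubated 20 h at 27 °C in YESCA broth with UTI89 carrying a single-copy GFP reporter under the csgBAC intergenic promoter region, inoculum OD600 0.003. Fluorescence normalized to vehicle wells gave IC50 and 50%-of-vehicle concentration; OD600 reduction >10% flagged growth impact.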

[1] = read-out: Reporter Assay Abs IC50 (activity range), median Abs IC50 in the CsgA reporter assay, class symbol
[2] = read-out: Reporter Assay Abs IC50 (μM), median Abs IC50 in the CsgA reporter assay, N/A = maximum expression reduction is <50% of control

Compound | IC50 [1] [µM] | IC50 [2] [µM]
COc1ccc(CN2C[C@@H](C(=O)O)n3c(c(-c4cccc(C(F)(F)F)c4)c(Cc4cccc5ccccc45)cc3=O)S2(=O)=O)cc1 (single isomer, unassigned) [Compound 026a] | 1.3 to 4.5 | 2
O=C(O)C1CSc2c(-c3cccc(C(F)(F)F)c3)c(Cc3cccc4ccccc34)cc(=O)n21 (single isomer, unassigned) [Compound 011a, 7-(naphthalen-1-ylmethyl)-5-oxo-8-(3-(trifluoromethyl)phenyl)-2,3-dihydro-5H-thiazolo[3,2-a]pyridine-3-carboxylic acid] | 1.3 to 4.5 | 4.4
O=C(O)C1C[S+]([O-])c2c(-c3cccc(C(F)(F)F)c3)c(Cc3cccc4ccccc34)cc(=O)n21 (racemic) [Compound 027b, 7-(naphthalen-1-ylmethyl)-5-oxo-8-(3-(trifluoromethyl)phenyl)-2,3-dihydro-5H-thiazolo[3,2-a]pyridine-3-carboxylic acid 1-oxide] | > 10 | 77.5
CN1CC(C(=O)O)n2c1c(-c1cccc(C(F)(F)F)c1)c(Cc1cccc3ccccc13)c(Br)c2=O (stereo not shown) [Compound 119, 6-bromo-1-methyl-7-(naphthalen-1-ylmethyl)-5-oxo-8-(3-(trifluoromethyl)phenyl)-1,2,3,5-tetrahydroimidazo[1,2-a]pyridine-3-carboxylic acid] | 1.3 to 4.5 | 2.5
O=C(O)C1CN(CCCCCO)S(=O)(=O)c2c(-c3cccc(C(F)(F)F)c3)c(Cc3cccc4ccccc34)c(NC3CCCC3)c(=O)n21 (stereo not shown) [Compound 122, 7-(cyclopentylamino)-2-(5-hydroxypentyl)-8-(naphthalen-1-ylmethyl)-6-oxo-9-(3-(trifluoromethyl)phenyl)-3,4-dihydro-2H,6H-pyrido[1,2-e][1,2,5]thiadiazine-4-carboxylic acid 1,1-dioxide] | 1.3 to 4.5 | 1.9
